# Experimental data published in patent publication US11986540B2, “Compositions including pafolacianine for the identification of malignant lesions” (ON TARGET LABORATORIES, LLC., priority 2022, dated 2024).
# Key:
# ovarian cancer lesion = test: Randomized, multicenter, open-label study: detection of ovarian cancer lesions under fluorescent light; assay type: in vivo, human
# Protocol: The safety and efficacy of the compositions disclosed herein was evaluated in a randomized, multicenter, open-label study. The study enrolled 178 women diagnosed with ovarian cancer or with high clinical suspicion of ovarian cancer scheduled to undergo primary surgical cytoreduction, interval debulking, or recurrent ovarian cancer surgery. One hundred and fifty women highly suspicious for or with confirmed ovarian cancer received a composition including pafolacianine (dosed at 0.025 mg/kg at least 1 hour before initiation of fluorescence imaging). Among them, 134 women with mean age 60 (range 33 to 81) years received both normal light imaging evaluation and fluorescence imaging evaluation (the Intent-to-Image set).
# The study assessed the proportion of patients with at least one evaluable ovarian cancer lesion confirmed by central pathology that was detected with compositions including pafolacianine under fluorescent light but not under normal light or palpation and not otherwise identified for resection prior to surgery. The detection proportion was estimated in women who underwent both normal light and fluorescent light (Intent-to-Image Set), see Table 1.
# tumor = test: Tumor to background ratios with different mass doses; assay type: in vivo, human; settings: dose of 0.025 mg per 1 kg bodyweight
# Description: Tumor to background ratios were studied with different mass doses of pafolacianine.
# [1] = tested on: FR-negative A549 cell tumor xenografts; test: Whole body imaging and tissue distribution, FR-negative A549 tumor xenografts; assay type: in vivo, mice
# Protocol: The optimal dose range for pafolacianine with respect to tumor-to-background ratio in FR-positive tumor-bearing mice was 1 to 30 nmol/mouse, with lower fluorescence intensity observed in tumors at a lower dose (0.3 nmol) and higher fluorescence intensity observed in other tissues at doses above 30 nmol. In a second experiment, pafolacianine whole body imaging and tissue distribution was examined again; however, this experiment was performed in female nu/nu mice bearing FR-negative A549 cell tumor xenografts.
# [2] = tested on: panel of 55 pharmacologically-relevant receptors, ion channels and transporters; test: In vitro ligand binding screen (ExpresSProfile; Cerep); settings: 5 μM
# Protocol: Pafolacianine (5 μM) was evaluated in an in vitro ligand binding screen (ExpresSProfile; Cerep 100010238), which assessed the potential for pafolacianine “off-target” binding to a broad panel of 55 pharmacologically-relevant receptors, ion channels and transporters.
# [3] = Plasma protein binding, equilibrium dialysis, rat plasma; assay type: in vitro ADME; settings: Sprague Dawley, read-out: mean (±SD) percentage of plasma protein bound (converted)
# Protocol: The plasma protein binding of pafolacianine was studied in vitro in fresh human, Sprague Dawley rat, and Beagle dog plasma using equilibrium dialysis. Pafolacianine was introduced into plasma samples, in duplicate, resulting in a final concentration of 5 μM. The mean (±SD) percentage of plasma protein bound pafolacianine was 99.1±0.1%, 98.6±0.1%, and 93.7±1.5% for rat, dog and human, respectively. Pafolacianine was highly bound to plasma protein in all species examined.
# [4] = Embryo-fetal development study in rats; assay type: in vivo
# Protocol: Pafolacianine was intravenously administered at doses of, during the period of organogenesis namely, 0.015, 0.15, and 1.5 mg/kg/day from gestational day (GD) 6 to GD17 in rats (human equivalent doses (HEDs) of 0.002, 0.024 and 0.242 mg/kg/day) and 0.3, 1, and 3 mg/kg/day from GD7 to GD20 in rabbits (HEDs of 0.097, 0.323 and 0.968 mg/kg/day). […] No-Observed-Adverse-Effect-Levels were 1.5 mg/kg/day in rats and 3 mg/kg/day in rabbits.
smiles,measurement,setting,value
CC1(C)C(=CC=C2CCCC(C=CC3=[N+](CCCCS(=O)(=O)[O-])c4ccc(S(=O)(=O)O)cc4C3(C)C)=C2Oc2ccc(CC(NC(=O)c3ccc(NCc4cnc5nc(N)[nH]c(=O)c5n4)cc3)C(=O)O)cc2)N(CCCCS(=O)(=O)O)c2ccc(S(=O)(=O)O)cc21 (stereo not shown) [pafolacianine],"Patients with at least one confirmed ovarian cancer evaluable lesion, Proportion (%)","ovarian cancer lesion; detected under fluorescent light but not normal light or palpation, Intent-to-Image set N = 134, 0.025 mg/kg",0.269 (26.9%)
same,Patient-level false positive rate,"ovarian cancer lesion; near-infrared fluorescent light, ovarian cancer lesions confirmed by central pathology",20.2%
same,tumor to background ratio,tumor,High
same,fluorescence in FR-negative tumors,[1],no fluorescence observed
same,fluorescence in kidneys,[1],fluorescence was primarily noted in kidneys
same,affinity to off-target proteins,[2],no significant affinity
same,fraction unbound at 5 μM,[3],0.009
same,Estimated systemic exposure relative to human exposure at 0.025 mg/kg (AUC comparison),[4]; rat,158 times
same,maternal toxicity and embryo-fetal development toxicity,"[4]; rats, 0.015, 0.15, 1.5 mg/kg/day IV",No significant drug-related maternal toxicity and embryo-fetal development toxicity
same,No-Observed-Adverse-Effect-Level,"[4]; rats, IV, GD6 to GD17",1.5 mg/kg/day
